Bridge positions count the residues as written; N and C are the ends. Square brackets hold non-standard residues; d marks the D form. Peptide text beside a SMILES is read from it. 2Nal = N[C@@H](Cc1ccc2ccccc2c1)C(=O)O; Lys(iPr) = CC(C)NCCCC[C@H](N)C(=O)O
Assay: Half-life in mice
Details: mouse, in vivo, read-out: half-life (T½) (converted)
Method: Pharmacologic properties such as compound bioavailability, in vivo metabolic stability, and pharmacokinetic/pharmacodynamic properties can be determined by methods well known in the art of drug development. […] For example, in mice, the half-life (T½) of the compound of Example 58 is about 3 hours. With respect to pharmacodynamic properties, preferred compounds induce prolonged neutrophil and white blood cell mobilization in mice. For example, the compound of Example 25 induces a significant increase of neutrophils and white blood cells in peripheral blood for at least 6 hours after single dose subcutaneous administration at 5 mg/kg in mice.

half-life: ~3 h
Compound: CC(C)NCCCC[C@@H]1NC(=O)[C@H](Cc2ccc(O)cc2)NC(=O)[C@H](Cc2ccccc2)NC(=O)CC[C@H](C(=O)N[C@@H](CCCNC(=N)N)C(N)=O)NC(=O)CNC(=O)[C@H](Cc2ccc3ccccc3c2)NC(=O)[C@@H](CCCNC(=N)N)NC1=O [Example 58, cyclo[Phe-Tyr-Lys(iPr)-DArg-2Nal-Gly-DGlu]-Arg-NH2] (FY[Lys(iPr)][dR][2Nal]G[dE]R-NH2; lactam N-7)
